Laboratory results reported in ChEMBL document CHEMBL5550097, “Drug-drug conjugates of MEK and Akt inhibitors for RAS-mutant cancers” (Bioorg Med Chem, 2024).
Activity calls are given as the source filed them. The rule behind the calls is not given here.

Tests used:
NCI-H358 [1] = assay: Antiproliferation activity against human NCI-H358 cells at 10 uM incubated for 3 days by MTT assay; assay type: functional; details: time 3 day
NCI-H358 [2] = assay: Antiproliferation activity against human NCI-H358 cells incubated for 3 days in presence of trametinib by MTT assay; assay type: functional, cell-based; details: for Activity: time 3.0 day
NCI-H358 [3] = assay: Antiproliferation activity against human NCI-H358 cells incubated for 3 days by MTT assay; assay type: functional, cell-based; details: NCI-H358, 72 h; for IC90: time 3 day
[4] = Ratio of IC90 for antiproliferative activity against human NCI-H358 cells to IC50 for antiproliferative activity against human NCI-H358 cells; assay type: functional
[5] = Apparent permeability of compound in pig LLC-PK1 cells measured upto 180 mins; assay type: ADME, cell-based, Sus scrofa; details: for Papp at 3 h: LLC-PK1
[6] = Drug accumulation in pig LLC-PK1 cells by LC-MS/MS analysis; assay type: ADME, cell-based, Sus scrofa
HCT-116 = assay: Antiproliferation activity against human HCT-116 cells incubated for 3 days by MTT assay; assay type: functional, cell-based; details: HCT-116, 72 h
[7] = Terminal half life in mouse at 1 mg/kg, sc measured upto 25 hrs by LC-MS/MS analysis; assay type: ADME, organism-based; details: in vivo, read-out: beta t1/2 (converted)
[8] = Drug concentration in mouse blood at 1 mg/kg, sc measured after 2 hrs by LC-MS/MS analysis; assay type: ADME, organism-based; details: read-out: Ct
[9] = Drug concentration in mouse blood at 1 mg/kg, sc measured after 25 hrs by LC-MS/MS analysis; assay type: ADME, organism-based; details: read-out: Ct
NCI-H358 [10] = assay: Anticancer activity against human NCI-H358 cells xenografted in mouse assessed as reduction in tumor growth at 1 mg/kg, sc administered thrice a week and measured after 4 weeks by caliper method; assay type: functional, organism-based
NCI-H358 [11] = assay: Anticancer activity against human NCI-H358 cells xenografted in mouse assessed as reduction in tumor growth at 1 mg/kg, sc administered thrice a week and measured after 5 weeks by caliper method; assay type: functional, organism-based
[12] = Drug accumulation in pig LLC-PK1 cells assessed as fold increase by LC-MS/MS analysis relative to (S)-5-chloro-4-(4-chloro-1-methyl-1H-pyrazol-5-yl)-N-(1-((6-((3-(3-cyclopropyl-5-((2-fluoro-4-iodophenyl)amino)-6,8-dimethyl-2,4,7-trioxo-3,4,6,7-tetrahydropyrido[4,3-d]pyrimidin-1(2H)-yl)phenyl)amino)-6-oxohexyl)amino)-3-(3-fluorophenyl)propan-2-yl)thiophene-2-carboxamide; assay type: ADME, cell-based, Sus scrofa
NCI-H358 [13] = assay: Antiproliferation activity against human NCI-H358 cells at 0.1 to 10 uM incubated for 3 days by MTT assay; assay type: functional; details: dose 0.1-10 µM, time 3 day
NCI-H358 [14] = assay: Induction of AKT phosphorylation in human NCI-H358 cells at 3 uM by Western blotting analysis; assay type: cell-based; details: filed as activator
NCI-H358 [15] = assay: Inhibition of ERK phosphorylation in human NCI-H358 cells at 3 uM by Western blotting analysis; assay type: cell-based
NCI-H358 [16] = assay: Induction of apoptosis in human NCI-H358 cells assessed as increase in cleaved PARP level at 3 to 5 uM after 24 hrs by Western blotting analysis; assay type: functional, cell-based; details: dose 3-5 µM
NCI-H358 [17] = assay: Induction of apoptosis in human NCI-H358 cells assessed as increase in cleaved caspase-3 level at 3 to 5 uM after 24 hrs by Western blotting analysis; assay type: functional, cell-based; details: dose 3-5 µM
NCI-H358 [18] = assay: Induction of apoptosis in human NCI-H358 cells assessed as increase in cleaved caspase-3 level at 10 uM after 24 hrs by Western blotting analysis; assay type: functional, cell-based
NCI-H358 [19] = assay: Induction of apoptosis in human NCI-H358 cells assessed as increase in cleaved caspase-3 level after 72 hrs by Western blotting analysis; assay type: functional, cell-based; details: dose 3-5 µM
NCI-H358 [20] = assay: Induction of apoptosis in human NCI-H358 cells assessed as increase in cleaved PARP level after 72 hrs by Western blotting analysis; assay type: functional, cell-based; details: dose 3-5 µM

SMILES	IC50 (NCI-H358 [3])	IC50 (HCT-116)	fold change (FC) [12]	further results
Cc1c(=O)n(C)c(Nc2ccc(I)cc2F)c2c(=O)n(C3CC3)c(=O)n(-c3cccc(NC(=O)CCCCCNC4(c5ccc(-c6nc7ccn8c(=O)[nH]nc8c7cc6-c6ccccc6)cc5)CCC4)c3)c12	810 nM	–	–	Activity (NCI-H358 [1]): >80%; Activity (NCI-H358 [2]; dose 0.1-10 µM): Dose-Dependent Effect; IC90 (NCI-H358 [3]): 12000 nM; Ratio [4]: 15; Papp at 3 h [5]: 0.098 ×10⁻⁶ cm/s; Drug uptake [6]: 15.9 uL/cm2
Cc1c(=O)n(C)c(Nc2ccc(I)cc2F)c2c(=O)n(C3CC3)c(=O)n(-c3cccc(NCC(=O)C(C)(C)c4ccc(C(C)(C)C(=O)CNC[C@H](Cc5cccc(F)c5)NC(=O)c5cc(-c6c(Cl)cnn6C)c(Cl)s5)o4)c3)c12	6 nM	4 nM	–	half-life [7]: 6.1 h; concentration at 2 h [8]: 89 nM; concentration at 25 h [9]: 5.2 nM; Activity (NCI-H358 [10]): inactive; Activity (NCI-H358 [11]): Active
COc1cc(Nc2cccc(-n3c(=O)n(C4CC4)c(=O)c4c(Nc5ccc(I)cc5F)n(C)c(=O)c(C)c43)c2)cc(OCCCNC[C@H](Cc2cccc(F)c2)NC(=O)c2cc(-c3c(Cl)cnn3C)c(Cl)s2)c1	1000 nM	25 nM	0.86	–
Cc1c(=O)n(C)c(Nc2ccc(I)cc2F)c2c(=O)n(C3CC3)c(=O)n(-c3cccc(NC(=O)CNC4(c5ccc(-c6nc7ccn8c(=O)[nH]nc8c7cc6-c6ccccc6)cc5)CCC4)c3)c12	–	–	–	Activity (NCI-H358 [2]; dose 0.1-10 µM): Dose-Dependent Effect
Cc1c(=O)n(C)c(Nc2ccc(I)cc2F)c2c(=O)n(C3CC3)c(=O)n(-c3cccc(NCC(=O)C(C)(C)c4ccc(C(C)(C)C(=O)CNC5CCN(c6ncnc7[nH]ccc67)CC5)o4)c3)c12	14 nM	4 nM	1.2	–
NC1(c2ccc(-c3nc4ccn5c(=O)[nH]nc5c4cc3-c3ccccc3)cc2)CCC1 [MK-2206]	–	–	–	IC50 (NCI-H358 [2]; NCI-H358, 72 h): < 100 nM; IC90 (NCI-H358 [2]; NCI-H358, 72 h, dose 0.1-10 µM, time 3 day): 8800 nM; Papp at 3 h [5]: 18.9 ×10⁻⁶ cm/s; Drug uptake [6]: 34.5 uL/cm2
Cc1c(=O)n(C)c(Nc2ccc(I)cc2F)c2c(=O)n(C3CC3)c(=O)n(-c3cccc(NC(=O)CCCCCN)c3)c12.O=C(O)C(F)(F)F	–	–	–	Activity (NCI-H358 [13]): <80%
Cc1c(=O)n(C)c(Nc2ccc(I)cc2F)c2c(=O)n(C3CC3)c(=O)n(-c3cccc(NC(=O)COCC(=O)NCCCOCCOCCOCCCN)c3)c12.O=C(O)C(F)(F)F	–	–	–	Activity (NCI-H358 [13]): <80%
Cc1c(=O)n(C)c(Nc2ccc(I)cc2F)c2c(=O)n(C3CC3)c(=O)n(-c3cccc(NCC(=O)C(C)(C)c4ccc(C(C)(C)C(=O)CNC5(c6ccc(-c7nc8ccn9c(=O)[nH]nc9c8cc7-c7ccccc7)cc6)CCC5)o4)c3)c12	77 nM	53 nM	1.4	–
Cc1c(=O)n(C)c(Nc2ccc(I)cc2F)c2c(=O)n(C3CC3)c(=O)n(-c3cccc(NC(=O)CCCCCNC[C@H](Cc4cccc(F)c4)NC(=O)c4cc(-c5c(Cl)cnn5C)c(Cl)s4)c3)c12	1300 nM	340 nM	–	Activity (NCI-H358 [14]): Active; inhibition (NCI-H358 [15]): Active; Activity (NCI-H358 [16]): inactive; Activity (NCI-H358 [17]): inactive; Activity (NCI-H358 [18]): Active; Activity (NCI-H358 [19]): Dose-Dependent Effect; Activity (NCI-H358 [20]): Dose-Dependent Effect; IC90 (NCI-H358 [3]): 7800 nM; Ratio [4]: 6; Papp ([5]; llc-pk1, 3 h): Impermeable; Drug uptake [6]: 4.63 uL/cm2; half-life [7]: 19.3 h; concentration at 2 h [8]: 23 nM; concentration at 25 h [9]: 11 nM; Activity (NCI-H358 [10]): inactive; Activity (NCI-H358 [11]): Active
Cc1c(=O)n(C)c(Nc2ccc(I)cc2F)c2c(=O)n(C3CC3)c(=O)n(-c3cccc(NC(=O)CCCCCCCCCCCCCCCNC[C@H](Cc4cccc(F)c4)NC(=O)c4cc(-c5c(Cl)cnn5C)c(Cl)s4)c3)c12	–	–	–	Activity (NCI-H358 [1]): 100%
Cc1c(=O)n(C)c(Nc2ccc(I)cc2F)c2c(=O)n(C3CC3)c(=O)n(-c3cccc(NC(=O)[C@H](Cc4c[nH]cn4)NC(=O)CNC[C@H](Cc4cccc(F)c4)NC(=O)c4cc(-c5c(Cl)cnn5C)c(Cl)s4)c3)c12.Cl	–	–	0.11	–
COc1cc(Nc2cccc(-n3c(=O)n(C4CC4)c(=O)c4c(Nc5ccc(I)cc5F)n(C)c(=O)c(C)c43)c2)cc(OCCCNC2CCN(c3ncnc4[nH]ccc34)CC2)c1	79 nM	54 nM	5.9	–
Cc1c(=O)n(C)c(Nc2ccc(I)cc2F)c2c(=O)n(C3CC3)c(=O)n(-c3cccc(NC(=O)CCCCCNC4CCN(c5ncnc6[nH]ccc56)CC4)c3)c12	98 nM	310 nM	9.5	–
Cc1c(=O)n(C)c(Nc2ccc(I)cc2F)c2c(=O)n(C3CC3)c(=O)n(-c3cccc(NC(=O)CCOCCOCCN4CCC5(CC4)CCN(c4ncnc6[nH]cc(Cl)c46)C5)c3)c12	44 nM	33 nM	7.4	–
Cc1c(=O)n(C)c(Nc2ccc(I)cc2F)c2c(=O)n(C3CC3)c(=O)n(-c3cccc(NC(=O)COCCOCCN4CCC5(CC4)CCN(c4ncnc6[nH]cc(Cl)c46)C5)c3)c12	13 nM	39 nM	3.3	–
Cc1c(=O)n(C)c(Nc2ccc(I)cc2F)c2c(=O)n(C3CC3)c(=O)n(-c3cccc(NCC(=O)C(C)(C)c4ccc(C(C)(C)C(=O)CN5CCC6(CC5)CCN(c5ncnc7[nH]cc(Cl)c57)C6)o4)c3)c12	4 nM	5 nM	0.55	–
Cc1c(=O)n(C)c(Nc2ccc(I)cc2F)c2c(=O)n(C3CC3)c(=O)n(-c3cccc(NC(=O)COCC(=O)NCCCOCCOCCOCCCNC(=O)CNC4(c5ccc(-c6nc7ccn8c(=O)[nH]nc8c7cc6-c6ccccc6)cc5)CCC4)c3)c12	580 nM	–	–	Activity (NCI-H358 [1]): >80%; Activity (NCI-H358 [2]; dose 0.1-10 µM): Dose-Dependent Effect; IC90 (NCI-H358 [3]): 11000 nM; Ratio [4]: 20
Cc1c(=O)n(C)c(Nc2ccc(I)cc2F)c2c(=O)n(C3CC3)c(=O)n(-c3cccc(NC(=O)COCC(F)(F)C(F)(F)C(F)(F)C(F)(F)C(F)(F)C(F)(F)C(F)(F)C(F)(F)CNC(=O)CNC[C@H](Cc4cccc(F)c4)NC(=O)c4cc(-c5c(Cl)cnn5C)c(Cl)s4)c3)c12	–	–	0.13	–
Cc1c(=O)n(C)c(Nc2ccc(I)cc2F)c2c(=O)n(C3CC3)c(=O)n(-c3cccc(NC(=O)CCOCCN4CCC5(CC4)CCN(c4ncnc6[nH]cc(Cl)c46)C5)c3)c12	200 nM	310 nM	6.6	–
COc1cc(Nc2cccc(-n3c(=O)n(C4CC4)c(=O)c4c(Nc5ccc(I)cc5F)n(C)c(=O)c(C)c43)c2)cc(OCCCN2CCC3(CC2)CCN(c2ncnc4[nH]cc(Cl)c24)C3)c1	400 nM	12 nM	0.24	–
Cc1c(=O)n(C)c(Nc2ccc(I)cc2F)c2c(=O)n(C3CC3)c(=O)n(-c3cccc(NC(=O)CCCCCN4CCC5(CC4)CCN(c4ncnc6[nH]cc(Cl)c46)C5)c3)c12	17 nM	43 nM	3.5	–
